Laboratory results from patent publication US11739098B2 (BRISTOL-MYERS SQUIBB COMPANY, priority 2017, dated 2023).
pIC50: −log10 of the molar value.

Key:
Format in all cases: cell-based
human TLR8 = target: T1, human TLR8 (Homo sapiens, UniProt Q9NR97); assay: TLR8 inhibition reporter assay (HEK-Blue cells, SEAP reporter, R848 stimulation); conditions: HEK-Blue cells overexpressing human TLR8, SEAP reporter, R848 15.9 μM
T1 construct: host or cells: HEK-Blue cells (HEK293-derived reporter line)
T1 sequence (Q9NR97 27-1041): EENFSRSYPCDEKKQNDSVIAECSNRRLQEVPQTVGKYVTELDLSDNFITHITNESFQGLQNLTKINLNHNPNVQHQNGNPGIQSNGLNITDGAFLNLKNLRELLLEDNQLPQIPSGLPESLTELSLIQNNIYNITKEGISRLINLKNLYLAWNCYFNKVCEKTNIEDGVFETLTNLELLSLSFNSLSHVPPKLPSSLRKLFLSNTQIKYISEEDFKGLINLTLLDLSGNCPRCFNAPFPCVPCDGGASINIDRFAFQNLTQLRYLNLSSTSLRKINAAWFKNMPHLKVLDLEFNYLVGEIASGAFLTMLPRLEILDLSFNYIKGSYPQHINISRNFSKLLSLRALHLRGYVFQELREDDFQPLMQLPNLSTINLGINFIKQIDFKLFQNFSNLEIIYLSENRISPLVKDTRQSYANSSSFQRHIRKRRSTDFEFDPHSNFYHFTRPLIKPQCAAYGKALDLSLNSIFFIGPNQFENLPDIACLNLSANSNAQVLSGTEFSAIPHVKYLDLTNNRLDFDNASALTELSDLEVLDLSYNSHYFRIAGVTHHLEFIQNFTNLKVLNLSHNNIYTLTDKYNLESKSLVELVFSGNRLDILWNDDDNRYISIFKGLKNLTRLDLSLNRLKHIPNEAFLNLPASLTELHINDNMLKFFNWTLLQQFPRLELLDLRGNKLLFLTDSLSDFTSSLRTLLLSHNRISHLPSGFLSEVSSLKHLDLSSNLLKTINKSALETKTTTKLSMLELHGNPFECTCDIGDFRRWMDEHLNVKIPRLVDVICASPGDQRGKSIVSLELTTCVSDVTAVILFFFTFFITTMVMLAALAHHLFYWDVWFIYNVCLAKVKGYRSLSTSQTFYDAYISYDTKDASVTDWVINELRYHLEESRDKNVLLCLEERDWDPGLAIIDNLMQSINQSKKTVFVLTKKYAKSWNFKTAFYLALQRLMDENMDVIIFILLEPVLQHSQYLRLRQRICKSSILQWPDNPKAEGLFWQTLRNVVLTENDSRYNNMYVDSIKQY
Procedure, shortened: (§1)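 HEK-Blue cells overexpressing human TLR7, TLR8 or TLR9 (NF-κB/AP-1-driven SEAP) pre-treated 30 min at room temperature with compound (0.05 nM–50 μM), then stimulated with gardiquimod 7.5 μM (TLR7), R848 15.9 μM (TLR8) or ODN2006 5 nM (TLR9). SEAP read colorimetrically after 22 h at 37 °C; % inhibition calculated.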

human TLR7 = target: T2, human TLR7 (Homo sapiens, UniProt Q9NYK1); assay: TLR7 inhibition reporter assay (HEK-Blue cells, SEAP reporter, gardiquimod stimulation); conditions: HEK-Blue cells overexpressing human TLR7, SEAP reporter, gardiquimod 7.5 μM
T2 construct: host or cells: HEK-Blue cells (HEK293-derived reporter line)
T2 sequence (Q9NYK1 27-1049): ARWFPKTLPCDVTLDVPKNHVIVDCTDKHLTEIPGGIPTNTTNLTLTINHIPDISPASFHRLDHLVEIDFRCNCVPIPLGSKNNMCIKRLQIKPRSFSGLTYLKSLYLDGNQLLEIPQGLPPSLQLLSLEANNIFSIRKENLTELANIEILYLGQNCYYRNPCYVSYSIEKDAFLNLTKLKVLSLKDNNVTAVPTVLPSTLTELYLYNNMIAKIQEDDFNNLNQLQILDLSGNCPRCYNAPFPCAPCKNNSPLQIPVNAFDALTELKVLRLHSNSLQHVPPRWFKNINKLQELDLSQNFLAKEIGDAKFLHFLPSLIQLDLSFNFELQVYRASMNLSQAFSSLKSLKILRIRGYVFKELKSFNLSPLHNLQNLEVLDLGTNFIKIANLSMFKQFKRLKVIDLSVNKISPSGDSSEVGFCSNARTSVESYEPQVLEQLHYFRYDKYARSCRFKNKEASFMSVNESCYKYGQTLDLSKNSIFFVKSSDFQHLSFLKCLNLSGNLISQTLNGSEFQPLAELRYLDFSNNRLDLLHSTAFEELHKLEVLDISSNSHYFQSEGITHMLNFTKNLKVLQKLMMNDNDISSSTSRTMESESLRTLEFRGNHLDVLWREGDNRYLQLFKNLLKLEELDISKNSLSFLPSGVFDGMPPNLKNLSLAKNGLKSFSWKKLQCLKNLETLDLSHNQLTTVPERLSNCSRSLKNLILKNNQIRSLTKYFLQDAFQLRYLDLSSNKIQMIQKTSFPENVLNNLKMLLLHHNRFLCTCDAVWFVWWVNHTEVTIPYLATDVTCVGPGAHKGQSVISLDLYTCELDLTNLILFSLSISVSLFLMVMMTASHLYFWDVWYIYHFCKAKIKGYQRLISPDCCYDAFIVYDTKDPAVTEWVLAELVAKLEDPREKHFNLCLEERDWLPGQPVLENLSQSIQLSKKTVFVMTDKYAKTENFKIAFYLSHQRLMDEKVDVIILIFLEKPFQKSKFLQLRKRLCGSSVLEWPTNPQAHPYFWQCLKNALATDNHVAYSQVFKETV
Procedure, shortened: as §1

human TLR9 = target: T3, human TLR9 (Homo sapiens, UniProt Q9NR96); assay: TLR9 inhibition reporter assay (HEK-Blue cells, SEAP reporter, ODN2006 stimulation); conditions: HEK-Blue cells overexpressing human TLR9, SEAP reporter, ODN2006 5 nM
T3 construct: host or cells: HEK-Blue cells (HEK293-derived reporter line)
T3 sequence (Q9NR96 26-1032): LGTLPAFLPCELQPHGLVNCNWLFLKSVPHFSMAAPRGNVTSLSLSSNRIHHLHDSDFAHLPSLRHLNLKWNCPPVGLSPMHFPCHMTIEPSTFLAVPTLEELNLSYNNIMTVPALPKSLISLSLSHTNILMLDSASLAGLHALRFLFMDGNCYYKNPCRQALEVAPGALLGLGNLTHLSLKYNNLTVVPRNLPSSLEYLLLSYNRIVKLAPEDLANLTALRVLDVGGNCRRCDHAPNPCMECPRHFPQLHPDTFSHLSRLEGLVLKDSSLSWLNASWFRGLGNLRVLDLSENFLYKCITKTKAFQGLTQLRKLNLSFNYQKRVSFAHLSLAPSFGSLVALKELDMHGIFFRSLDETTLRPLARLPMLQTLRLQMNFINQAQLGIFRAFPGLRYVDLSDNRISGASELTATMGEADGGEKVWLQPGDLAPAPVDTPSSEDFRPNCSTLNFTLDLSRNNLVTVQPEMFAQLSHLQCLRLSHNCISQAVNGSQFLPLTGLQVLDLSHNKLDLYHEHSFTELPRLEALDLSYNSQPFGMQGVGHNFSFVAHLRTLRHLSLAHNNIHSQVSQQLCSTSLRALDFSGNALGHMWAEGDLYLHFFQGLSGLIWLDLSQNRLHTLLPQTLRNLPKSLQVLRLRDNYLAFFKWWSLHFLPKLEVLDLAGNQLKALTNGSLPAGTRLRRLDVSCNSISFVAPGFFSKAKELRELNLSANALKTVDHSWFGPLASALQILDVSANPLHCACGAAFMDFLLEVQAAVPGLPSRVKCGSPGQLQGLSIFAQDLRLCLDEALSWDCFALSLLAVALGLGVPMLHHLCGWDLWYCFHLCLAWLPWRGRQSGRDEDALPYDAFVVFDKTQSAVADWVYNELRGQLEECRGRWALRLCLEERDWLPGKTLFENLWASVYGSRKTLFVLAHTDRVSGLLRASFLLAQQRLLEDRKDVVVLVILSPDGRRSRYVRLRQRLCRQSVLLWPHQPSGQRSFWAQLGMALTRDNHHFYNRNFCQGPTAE
Procedure, shortened: as §1

Row | Structure (SMILES) | pIC50 (human TLR8) | pIC50 (human TLR7) | pIC50 (human TLR9)
1 | CCc1c(-c2ccn3ncnc3c2)[nH]c2ccc(C3CCNCC3)cc12 [Example 198, 7-(3-ethyl-5-(piperidin-4-yl)-1H-indol-2-yl)-[1,2,4]triazolo[1,5-a]pyridine] | 6.00 to 7.00 | > 7.00 | 4.30 to 6.00
2 | CC(C)c1c(-c2cnc3[nH]ncc3c2)[nH]c2ccc(C3CCN(C(=O)CN(C)C)CC3)cc12 [Example 562, 2-(dimethylamino)-1-(4-(3-isopropyl-2-(1H-pyrazolo[3,4-b]pyridin-5-yl)-1H-indol-5-yl)piperidin-1-yl)ethan-1-one] | > 7.00 | > 7.00 | 4.30 to 6.00
3 | Cc1cc(-c2[nH]c3ccc(C4CCN(C5CCOCC5)CC4)cc3c2C(C)C)cc2cncn12 [Example 707, 7-(3-isopropyl-5-(1-(tetrahydro-2H-pyran-4-yl)piperidin-4-yl)-1H-indol-2-yl)-5-methylimidazo[1,5-a]pyridine] | > 7.00 | > 7.00 | 6.00 to 7.00
4 | CCOc1cc(-c2[nH]c3ccc(C4CCN(CC(=O)NC)CC4)cc3c2C(C)C)cc2nc(C)nn12 [Example 349, 2-(4-(2-(5-ethoxy-2-methyl-[1,2,4]triazolo[1,5-a]pyridin-7-yl)-3-isopropyl-1H-indol-5-yl)piperidin-1-yl)-N-methylacetamide] | > 7.00 | > 7.00 | 4.30 to 6.00
5 | CC(C)c1c(-c2ccc3nccn3c2)[nH]c2ccc(C3CCN(CC(=O)NCC(F)(F)F)CC3)cc12 [Example 401, 2-(4-(2-(imidazo[1,2-a]pyridin-6-yl)-3-isopropyl-1H-indol-5-yl)piperidin-1-yl)-N-(2,2,2-trifluoroethyl)acetamide] | 6.00 to 7.00 | 6.00 to 7.00 | 4.30 to 6.00
6 | CNC(=O)CN1CCC(c2ccc3[nH]c(-c4ccc5ncnn5n4)c(C(C)C)c3c2)CC1 [Example 277, 2-(4-(2-([1,2,4]triazolo[1,5-b]pyridazin-6-yl)-3-isopropyl-1H-indol-5-yl)piperidin-1-yl)-N-methylacetamide] | > 7.00 | > 7.00 | 4.30 to 6.00
7 | CC(C)c1c(-c2cnc3ccnn3c2)[nH]c2ccc(C3CCN(CC(C)(C)O)CC3)cc12 [Example 759, 1-(4-(3-isopropyl-2-(pyrazolo[1,5-a]pyrimidin-6-yl)-1H-indol-5-yl)piperidin-1-yl)-2-methylpropan-2-ol] | 4.30 to 6.00 | 6.00 to 7.00 | 4.30 to 6.00
8 | COc1c(C)c(-c2[nH]c3ccc(C4CCN(C5CCOCC5)CC4)cc3c2C(C)C)nn2ncnc12 [Example 685, 6-(3-isopropyl-5-(1-(tetrahydro-2H-pyran-4-yl)piperidin-4-yl)-1H-indol-2-yl)-8-methoxy-7-methyl-[1,2,4]triazolo[1,5-b]pyridazine] | > 7.00 | > 7.00 | 4.30 to 6.00
9 | Cc1nc(CN2CCC(c3ccc4[nH]c(-c5ccc6nccn6c5)c(C(C)C)c4c3)CC2)c[nH]1 [Example 938, 6-(3-isopropyl-5-(1-((2-methyl-1H-imidazol-4-yl)methyl)piperidin-4-yl)-1H-indol-2-yl)imidazo[1,2-a]pyridine] | > 7.00 | > 7.00 | 6.00 to 7.00
10 | Cc1cc(-c2[nH]c3ccc(C4CCN(C(=O)CN(C)C)CC4)cc3c2C(C)C)cn2cc(C(=O)N(C)CCO)nc12 [Example 494, 6-(5-(1-(dimethylglycyl)piperidin-4-yl)-3-isopropyl-1H-indol-2-yl)-N-(2-hydroxyethyl)-N,8-dimethylimidazo[1,2-a]pyridine-2-carboxamide] | > 7.00 | > 7.00 | 4.30 to 6.00
11 | Cc1cc2[nH]c(-c3ccnc4[nH]ncc34)c(C(C)C)c2cc1C1CCNCC1 [Example 250, 4-(3-isopropyl-6-methyl-5-(piperidin-4-yl)-1H-indol-2-yl)-1H-pyrazolo[3,4-b]pyridine] | > 7.00 | > 7.00 | 6.00 to 7.00
